In brackets after ≈: the same amount, converted by molar mass.
Tests used:
[1] = system: eggs of sweet potato root knot nematode (M. incognita); assay: Egg hatching inhibitory activity against sweet potato root knot nematode; design: species or system Meloidogyne incognita; settings: 336 h, 14 days after treatment, read-out: Rate of inhibiting egg hatching; for inhibition at 3.1 µg/mL: 3.1 μg/ml; for inhibition at 25 µg/mL: 25 μg/ml
Description: The experiments were carried out in triplicate. […] Egg hatching inhibitory activity (%)=[(C−T)/C]×100,
C=Egg hatching rate of control group*, T=Egg hatching rate of treatment group *Egg hatching rate (%)=Number of juveniles/[Number of egg+Number of juveniles]×100

[2] = system: sweet potato root knot nematode (M. incognita) 2nd stage juveniles; assay: organism not typed; settings: for LC50: Meloidogyne incognita, read-out: LC50 M. incognita 72 h
Description: The three layers were finally applied at concentrations of 15.6, 31.3, 62.5, 125, 250, 500, or 1,000 μg/ml. As a control group, treatment with 1% acetone and methanol was carried out, and, after the treatment, the 96-well plate was shaken for 30 seconds so that the test compound is mixed well. Thereafter, the plate was added to a plastic container having relative humidity of 100% and stored at room temperature. To obtain eggs of a root knot nematode from roots of tomato infected by root knot nematode, plant roots were washed with tap water to remove adhering soil and cut into 1 cm pieces. Eggs were extracted in 0.5% sodium hypochlorite solution for 1 min and collected by passage through 45 and 25 μm sieves. Second-stage juveniles (J2) were allowed to hatch in modified Baermann funnels at 20° C.
Ninety nine μl of 50 2nd stage juveniles of sweet potato root knot nematode were added to each well of a 96-well plate, and then, according to a treatment of 1% solvent extract, the final volume per well was adjusted to 100 μl. […] 72 Hours after the treatment with a test compound, mortality was determined under an optical inverted microscope by using the equation shown below. As for the mortality, the linear nematode showing no movement was taken as dead nematode, the nematode showing movement of flexible curve was taken as live nematode, and the mortality was examined using the following equation. Mortality (%)=[Mortality percentage in treatment−mortality percentage of negative control/(100−mortality percentage in negative control)]×100
To determine the mortality and activity of inhibiting egg hatching of the purified compound, the compound was dissolved in methanol and trans-cinnamaldehyde as a control agent was dissolved in ethanol and used for the experiment. […] Furthermore, the activity of inhibiting egg hatching of sweet potato root knot nematode (M. incognita) was also examined at the same concentration. As a non-treatment group, 1% methanol and ethanol were used, and, according to the method explained above, the mortality and activity of inhibiting egg hatching were examined. The experiments were carried out in triplicate. The mortality was determined 3 days after the treatment of a test compound while the rate of inhibiting egg hatching was determined 14 days after the treatment of a test compound. The rate of inhibiting egg hatching was calculated based on the following equation. Egg hatching inhibitory activity (%)=[(C−T)/C]×100,

[3] = system: carrot root knot nematode (M. hapla) 2nd stage juveniles; assay: Mortality against 2nd stage juveniles of carrot root knot nematode; design: species or system Meloidogyne hapla; settings: 72 h; for LC50: 2nd stage juveniles
colon cancer cell SW.71 = assay: MTT cell viability assay (human cytotoxicity); settings: for Cytotoxicity, in words: test concentration 0.1 to 10 μg/ml; for Cytotoxicity, in words / Cell viability compared to the non-treatment group: 24 hours
Description: The colon cancer cell SW.71 as a cell line used for the experiment was kept in −196° C. liquid nitrogen tank until use. The colon cancer cell SW.71 was added, in RPMI-1640 (Life Technologies Inc., USA) medium, with 10% FBS (fetal bovine serum, Gibco) and 1% penicillin-streptomycin, cultured for 72 hours in an incubator at condition of 37° C., 5% CO2, and then used. As for the MTT reagent, thiazolyl blue tetrazolium bromide was used, and, after dissolving it in PBS (phosphate buffer saline) to have final concentration of 5 mg/ml, it was kept at 4° C. under light-shielding condition. The colon cancer cell SW.71 was inoculated, in an amount of 130 μl, to a 96-well plate to have concentration of 5×10^3 or 1×10^4 cells/well. […] After culturing the cells for 24 hours, the MTT solution was added in an amount of 14.5 μl for each well followed by culture for 2 hours or longer at 37° C. The medium was carefully removed and DMSO was added in an amount of 108.5 μl per well to terminate the reaction followed by stirring using a plate shaker for 30 minutes at room temperature, dark conditions. Thereafter, by using a microplate ELISA reader, absorbance at a wavelength of 540 nm was measured, and the cell viability after culture for 24 hours was examined. For the non-treatment group, 1% MeOH was added to a DMEM medium. All the experiments were repeated in triplicate.

## O=C1C=C2C(O)C=COC2O1 (stereo not shown) [grammicin]
[1]
  inhibition at 3.1 µg/mL: 68.2%
  inhibition at 25 µg/mL: 91.4%
[2]
  Mortality against root knot nematodes, in words (summary): very high mortality
[2]; 72 h
  mortality at 12.5 µg/mL: 52.8%
  mortality at 50 µg/mL: 100%
  LC50: 15.9 µg/mL (≈ 103 µM)
[3]; 25 μg/ml, 3 days after treatment
  mortality at 25 µg/mL: 62.4%
[3]; 50 μg/ml, 3 days after treatment
  mortality at 50 µg/mL: 100%
[3]
  LC50: 3.12 µg/mL (≈ 20.2 µM)
Colon cancer cell SW.71; at a test concentration
  Cytotoxicity for colon cancer cells, in words (summary): no toxicity
Colon cancer cell SW.71; 1×10^4 cells/well
  Cytotoxicity, in words: no cytotoxicity
Colon cancer cell SW.71; 5×10^3 cells/well
  Cytotoxicity, in words: no cytotoxicity

## O=C1C=C2C(=CCOC2O)O1 (stereo not shown) [patulin]
[2]
  Mortality against root knot nematodes, in words (summary): almost no activity
  mortality at 100 µg/mL: 38.7%
Colon cancer cell SW.71; 0.1 μg/ml, 1×10^4 cells/well
  Cell viability compared to the non-treatment group: 66.2%
Colon cancer cell SW.71; 0.1 μg/ml, 5×10^3 cells/well
  Cell viability compared to the non-treatment group: 72.2%
Colon cancer cell SW.71; 0.5 μg/ml, 1×10^4 cells/well
  Cell viability compared to the non-treatment group: 80.5%
Colon cancer cell SW.71; 0.5 μg/ml, 5×10^3 cells/well
  Cell viability compared to the non-treatment group: 72.1%
Colon cancer cell SW.71; 1 μg/ml, 1×10^4 cells/well
  Cell viability compared to the non-treatment group: 75.3%
Colon cancer cell SW.71; 1 μg/ml, 5×10^3 cells/well
  Cell viability compared to the non-treatment group: 42.1%
Colon cancer cell SW.71; 5 μg/ml, 1×10^4 cells/well
  Cell viability compared to the non-treatment group: 58.4%
Colon cancer cell SW.71; 5 μg/ml, 5×10^3 cells/well
  Cell viability compared to the non-treatment group: 43.5%
Colon cancer cell SW.71; 10 μg/ml, 1×10^4 cells/well
  Cell viability compared to the non-treatment group: 27.6%
Colon cancer cell SW.71; 10 μg/ml, 5×10^3 cells/well
  Cell viability compared to the non-treatment group: 31.4%

## O=C/C=C/c1ccccc1 [trans-cinnamaldehyde]
[1]
  inhibition at 3.1 µg/mL: 31.3%
  inhibition at 25 µg/mL: 65%
[2]; 72 h
  LC50: 18.3 µg/mL (≈ 139 µM)
[3]
  LC50: 8.56 µg/mL (≈ 64.8 µM)
